US12156880B2, “Heterocyclic RIP1 kinase inhibitors” (Rigel Pharmaceuticals, Inc., priority 2021, dated 2024)

What was measured:
RIPK1 = biological target: T1, RIPK1 (Homo sapiens, UniProt Q13546); assay: RIPK1 ADP-Glo biochemical kinase assay; conditions: read-out: RIPK1 ADP-Glo Kinase (IC50)
T1 sequence (Q13546 1-671): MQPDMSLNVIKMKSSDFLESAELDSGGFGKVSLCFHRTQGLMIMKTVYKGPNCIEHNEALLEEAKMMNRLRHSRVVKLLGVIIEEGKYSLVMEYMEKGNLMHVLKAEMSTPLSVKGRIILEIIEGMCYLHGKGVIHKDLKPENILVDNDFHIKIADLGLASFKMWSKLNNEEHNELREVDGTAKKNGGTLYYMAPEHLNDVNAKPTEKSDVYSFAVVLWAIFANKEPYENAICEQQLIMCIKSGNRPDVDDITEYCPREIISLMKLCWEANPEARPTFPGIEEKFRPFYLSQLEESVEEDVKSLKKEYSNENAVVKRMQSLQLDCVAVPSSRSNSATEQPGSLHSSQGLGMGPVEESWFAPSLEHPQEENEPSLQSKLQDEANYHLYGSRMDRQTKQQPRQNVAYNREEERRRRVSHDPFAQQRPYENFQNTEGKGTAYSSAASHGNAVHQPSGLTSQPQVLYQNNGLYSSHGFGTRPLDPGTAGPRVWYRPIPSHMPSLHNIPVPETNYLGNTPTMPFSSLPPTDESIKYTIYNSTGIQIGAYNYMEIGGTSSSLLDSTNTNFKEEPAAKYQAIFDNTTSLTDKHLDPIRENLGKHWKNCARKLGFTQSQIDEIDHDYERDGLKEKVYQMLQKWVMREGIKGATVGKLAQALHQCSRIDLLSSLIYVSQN
Description: In this example, compounds of the disclosure were evaluated using a biochemical assay using the ADP-Glo™ technology.
ADP-Glo™ (Promega, Madison, WI, USA) reagents were thawed at ambient temperature. Kinase Detection Reagent was prepared by mixing kinase detection buffer with the lyophilized kinase detection substrate.
A […] stock volume of 5× Reaction Kinase Buffer was made by mixing 1000 μl of 1M MgCl2, 500 μl of 1M Tris-HCL pH7.4, 0.5 mg/ml (25 mg) of BSA, and 3475 μl of distilled H2O. A 3 ml 2× working stock volume of Reaction Kinase Buffer was made containing a final concentration of 100 μM DTT and 4 mM MnCl2.
Components of RIPK1 enzyme (Rigel Pharmaceuticals, South San Francisco, CA, USA) were thawed on ice. Diluted RIPK1 was prepared in 1× Kinase Reaction Buffer (diluted from 2× buffer) to 31 ng/well.
1.0 ul of diluted compound was added to a 384 well plate in duplicate. […] The final reaction volume was 5.0 μl.
The plate was quickly centrifuged and the reaction was incubated at 30° C. for 30 minutes. Adding 5 μl of ADP-Glo™ terminated the reaction. The plate was quickly centrifuged and the reaction was incubated at room temperature for 40 minutes. Kinase Detection Reagent was then added and incubated at room temperature for 30 minutes. The relative light unit (RLU) of kinase reaction was determined by luminescent (Luminescence 0.1 s) using a Wallac Victor2 Luminometer (PerkinElmer, Waltham, MA, USA).

U937 cells = assay: U937 cell necroptosis assay (TNFa + zVAD, CellTiter-Glo recovery); type: cell-based; conditions: Homo sapiens, U-937, 18 h, TNFa 2 ng/mL + zVAD-fmk, read-out: U937 Zvad TNF CTG Recovery, U937, TNFa + zVAD (IC50)
Description: In this example, U937 and L929 cells were exposed to compounds of the present disclosure and a cell necroptosis assay was conducted to evaluate the compounds' activity against human RIP1 and murine RIP1.
U937 and L929 cells were obtained from the American Type Culture Collection (Manassas, VA, USA). Both cells were maintained in logarithmic growth phase in complete RPMI 1640 media (Sigma, ST Louis, MO, USA) supplemented with 10% fetal bovine serum (Sigma, ST Louis, MO, USA) at 37° C. with 5% CO2. For necroptosis assay, L929 cells were plated for 18 h in 100 μL/well medium at 10K cells/well in Costar 96-well black clear-bottom plates (Fisher Scientific, Hampton, NH, USA); U937 cells were plated on the day of the assay in 50 μL/well medium containing 60 uM zVAD-fmk (Lonza, Basel, Switzerland) at 50K cells/well. Medium from L929 cells were removed from the 96-well plates and replaced with 50 μL/well new medium containing 40 uM zVAD-fmk. Each compound of the present disclosure evaluated in this example was serially diluted in DMSO from 2.5 mM in 4-fold dilutions, and then diluted 1:125 in complete medium. 50 μL/well 2× of the compound was then added to the cells in the plates. The cells were pre-incubated with the compound for 1 hour at 37° C. with 5% CO2 and before addition of 10 μL/well 11×TNFa (Peprotech, Rocky Hill, NJ, USA) to give a final concentration of 2 ng/mL for TNFa. The relative amount of necroptosis cells was determined by luminescent using a Wallac Victor2 Luminometer (PerkinElmer, Waltham, MA, USA) and a CellTiter-Glo® Luminescent Cell Viability Reagent Assay (Promega, Madison, WI, USA) added per manufacturer instructions after 18 hours of TNFa stimulation at 37° C. with 5% CO2. This example establishes that embodiments of the compounds described herein have unexpectedly potent activity against human RIP1 and murine RIP1, which allows their assessment in in vivo mouse models of disease.

IC50 (RIPK1) [nM] | Structure (SMILES) | IC50 (U937 cells) [nM]
 | Cc1cccc(Cc2cnn(C(=O)N[C@H]3COc4ccc(Br)cc4N(C)C3=O)c2)n1 [I-19, (S)—N-(7-Bromo-5-methyl-4-oxo-2,3,4,5-tetrahydrobenzo[b][1,4]oxazepin-3-yl)-4-((6-methylpyridin-2-yl)methyl)-1H-pyrazole-1-carboxamide] | 264
 | CN1C(=O)[C@@H](NC(=O)n2cc(Cc3ccc(F)nc3)cn2)COc2ccc(Br)cc21 [I-24, (S)—N-(7-Bromo-5-methyl-4-oxo-2,3,4,5-tetrahydrobenzo[b][1,4]oxazepin-3-yl)-4-((6-fluoropyridin-3-yl)methyl)-1H-pyrazole-1-carboxamide] | 69.8
 | CN1C(=O)[C@@H](NC(=O)n2cc(Cc3cccnn3)cn2)COc2ccc(Br)cc21 [I-25, (S)—N-(7-Bromo-5-methyl-4-oxo-2,3,4,5-tetrahydrobenzo[b][1,4]oxazepin-3-yl)-4-(pyridazin-3-ylmethyl)-1H-pyrazole-1-carboxamide] | 4120
467 | Cc1noc(C)c1Cc1ccnc(C(=O)N[C@H]2COc3ccc(C#CC(C)(C)O)cc3N(C)C2=O)c1 [I-68, (S)-4-((3,5-dimethylisoxazol-4-yl)methyl)-N-(7-(3-hydroxy-3-methylbut-1-yn-1-yl)-5-methyl-4-oxo-2,3,4,5-tetrahydrobenzo[b][1,4]oxazepin-3-yl)picolinamide] | 7160
326 | Cc1noc(C)c1Cc1ccnc(C(=O)N[C@H]2COc3ccc(C#CC4(O)COC4)cc3N(C)C2=O)c1 [I-69, (S)-4-((3,5-dimethylisoxazol-4-yl)methyl)-N-(7-((3-hydroxyoxetan-3-yl)ethynyl)-5-methyl-4-oxo-2,3,4,5-tetrahydrobenzo[b][1,4]oxazepin-3-yl)picolinamide] | 2830
4530 | CN1C(=O)[C@@H](NC(=O)c2cc(Oc3ccc(C(F)(F)F)nc3)ccn2)COc2ccc(C#CC(C)(C)O)cc21 [I-80, (S)—N-(7-(3-hydroxy-3-methylbut-1-yn-1-yl)-5-methyl-4-oxo-2,3,4,5-tetrahydrobenzo[b][1,4]oxazepin-3-yl)-4-((6-(trifluoromethyl)pyridin-3-yl)oxy)picolinamide] | 7310
392 | CN1C(=O)[C@@H](NC(=O)c2cc(Oc3ccc(C(F)(F)F)nc3)ccn2)COc2ccc(C#CC3(O)COC3)cc21 [I-81, (S)—N-(7-((3-hydroxyoxetan-3-yl)ethynyl)-5-methyl-4-oxo-2,3,4,5-tetrahydrobenzo[b][1,4]oxazepin-3-yl)-4-((6-(trifluoromethyl)pyridin-3-yl)oxy)picolinamide] | 5290
 | CN1C(=O)[C@@H](NC(=O)c2cc(O)ccn2)COc2ccc(C#CC(C)(C)O)cc21 [I-86, (S)-4-hydroxy-N-(7-(3-hydroxy-3-methylbut-1-yn-1-yl)-5-methyl-4-oxo-2,3,4,5-tetrahydrobenzo[b][1,4]oxazepin-3-yl)picolinamide] | 59600
 | CN1C(=O)[C@@H](NC(=O)c2cc(O)ccn2)COc2ccc(C#CC3(O)COC3)cc21 [I-89, (S)-4-hydroxy-N-(7-((3-hydroxyoxetan-3-yl)ethynyl)-5-methyl-4-oxo-2,3,4,5-tetrahydrobenzo[b][1,4]oxazepin-3-yl)picolinamide] | 28200
6470 | CN1C(=O)[C@@H](NC(=O)n2cc(Oc3cccc(F)n3)cn2)COc2ccc(Br)cc21 [I-110, (S)—N-(7-Bromo-5-methyl-4-oxo-2,3,4,5-tetrahydrobenzo[b][1,4]oxazepin-3-yl)-4-((6-fluoropyridin-2-yl)oxy)-1H-pyrazole-1-carboxamide] | 9070
80.4 | CN1C(=O)[C@@H](NC(=O)n2cc(Oc3cccc(F)n3)cn2)COc2ccc(C#CC(C)(C)O)cc21 [I-112, (S)-4-((6-Fluoropyridin-2-yl)oxy)-N-(7-(3-hydroxy-3-methylbut-1-yn-1-yl)-5-methyl-4-oxo-2,3,4,5-tetrahydrobenzo[b][1,4]oxazepin-3-yl)-1H-pyrazole-1-carboxamide] | 1850
2150 | CN1C(=O)[C@@H](NC(=O)c2cc(Oc3ccccn3)ccn2)COc2ccc(C#CC(C)(C)O)cc21 [I-128, (S)—N-(7-(3-hydroxy-3-methylbut-1-yn-1-yl)-5-methyl-4-oxo-2,3,4,5-tetrahydrobenzo[b][1,4]oxazepin-3-yl)-4-(pyridin-2-yloxy)picolinamide] | 199000

Structure (SMILES) | IC50 (RIPK1) [nM] | IC50 (U937 cells) [nM]
CN1C(=O)[C@@H](NC(=O)n2cc(Cc3ccccn3)cn2)COc2ccc(C#CC(C)(C)O)cc21 [I-8, (S)—N-(7-(3-Hydroxy-3-methylbut-1-yn-1-yl)-5-methyl-4-oxo-2,3,4,5-tetrahydrobenzo[b][1,4]oxazepin-3-yl)-4-(pyridin-2-ylmethyl)-1H-pyrazole-1-carboxamide] | 26.4 | 
CN1C(=O)[C@@H](NC(=O)c2cc(Cc3cccc(O)n3)ccn2)COc2ccc(C#CC3(O)COC3)cc21 [I-10, (S)—N-(7-((3-hydroxyoxetan-3-yl)ethynyl)-5-methyl-4-oxo-2,3,4,5-tetrahydrobenzo[b][1,4]oxazepin-3-yl)-4-((6-hydroxypyridin-2-yl)methyl)picolinamide] | 304 | 2830
CN1C(=O)[C@@H](NC(=O)n2cc(Cc3cccnn3)cn2)COc2ccc(C#CC(C)(C)O)cc21 [I-17, (S)—N-(7-(3-Hydroxy-3-methylbut-1-yn-1-yl)-5-methyl-4-oxo-2,3,4,5-tetrahydrobenzo[b][1,4]oxazepin-3-yl)-4-(pyridazin-3-ylmethyl)-1H-pyrazole-1-carboxamide] | 111 | 715
CN1C(=O)[C@@H](NC(=O)n2cc(Cc3ncccn3)cn2)COc2ccc(Br)cc21 [I-30, (S)—N-(7-Bromo-5-methyl-4-oxo-2,3,4,5-tetrahydrobenzo[b][1,4]oxazepin-3-yl)-4-(pyrimidin-2-ylmethyl)-1H-pyrazole-1-carboxamide] | 480 | 7210
CN1C(=O)[C@@H](NC(=O)n2cc(Cc3ncccn3)cn2)COc2ccc(C#CC(C)(C)O)cc21 [I-31, (S)—N-(7-(3-Hydroxy-3-methylbut-1-yn-1-yl)-5-methyl-4-oxo-2,3,4,5-tetrahydrobenzo[b][1,4]oxazepin-3-yl)-4-(pyrimidin-2-ylmethyl)-1H-pyrazole-1-carboxamide] | 106 | 1980
CN1C(=O)[C@@H](NC(=O)n2cc(Cc3ccc(F)nc3F)cn2)COc2ccc(Br)cc21 [I-49, (S)—N-(7-Bromo-5-methyl-4-oxo-2,3,4,5-tetrahydrobenzo[b][1,4]oxazepin-3-yl)-4-((2,6-difluoropyridin-3-yl)methyl)-1H-pyrazole-1-carboxamide] | 207 | 170
